Test system: bladder cancer cell lines (5637, J82, SCaBER, TCCSUP)
Test: Quantitative gene expression analyses (real-time PCR) after epigenetic drug treatment
Format: cell-based, human
Details: hypermethylated bladder cancer cell lines; 1 μM or 5 μM 5-aza-dC alone, 72 hours
Description: Cell lines representative of bladder (5637, J82, SCaBER, and TCCSUP), renal cell (786-0, ACHN, Caki-1, Caki-2) and prostate (22Rv1, DU 145, LNCaP, PC-3) cancer were obtained from the American Type Culture Collection (Manassas, Va.). All cell lines were cultured according to the manufacturer's specifications, with 10% fetal bovine serum (Gibco, Invitrogen, Carlsbad, Calif.) and antibiotics (100 units/mL penicillin G, and 100 μg/mL streptomycin, Gibco), in a humidified atmosphere of 5% CO2 at 37° C. […] RNA from four bladder cancer cell lines untreated, treated either with 1 μM or 5 μM of 5-aza-2′-deoxycytidine for 72 hours, and treated with the combination of 1 μM of 5-aza-dC (72 h) and 0.5 μM of trichostatin (added the last 12 h) was analyzed. […] GDF15 (Hs00171132_m1), HSPA2 (Hs00356607_g1), TMEFF2 (Hs01086901_m1), VIM (Hs00185584_m1), and endogenous controls assays GUSB (Hs99999908_m1) and HPRTJ (Hs99999909_m1), were amplified separately in 96-well plates following the recommended protocol (Applied Biosystems), and the real time quantitative gene expression was measured by the 7500 Real-Time PCR System (Applied Biosystems). All samples were analyzed in triplicate, and the mean value was used for data analysis. […]

Q: With `Nc1ncn([C@H]2C[C@H](O)[C@@H](CO)O2)c(=O)n1` [5-aza-dC, 5-aza-2′-deoxycytidine] as the molecule, how does the “transcript expression of GDF15, HSPA2, TMEFF2 and VIM after promoter demethylation” value read?
A: restored or increased
